Like-named read-outs stand apart in the source and are kept apart here.
Tests used:
Puccinia triticina = test: Fungicidal activity: wheat brown rust (PUCCRT), disease control on wheat seedlings; format: in vivo; details: for pest or weed control at 121.5 g/ha: low volume application, 121.5 g/H; for pest or weed control at 100 ppm: high volume application
Procedure: Technical grades of materials were dissolved in acetone, which were then mixed with nine volumes of water (H2O) containing 110 ppm Triton X-100. The fungicide solutions were applied onto wheat seedlings using an automated booth sprayer to run-off. All sprayed plants were allowed to air dry prior to further handling. All fungicides were evaluated using the aforementioned method for their activity vs. all target diseases, unless stated otherwise. Wheat leaf blotch and brown rust activity were also evaluated using track spray applications, in which case the fungicides were formulated as EC formulations, containing 0.1% Trycol 5941 in the spray solutions. Wheat plants (variety Yuma) were grown from seed in a greenhouse in 50% mineral soil/50% soil-less Metro mix until the first leaf was fully emerged, with 7-10 seedlings per pot. These plants were inoculated with an aqueous spore suspension of Puccinia triticina either prior to or after fungicide treatments. After inoculation the plants were kept in a dark dew room at 22° C. with 100% relative humidity overnight to permit spores to germinate and infect the leaf. The plants were then transferred to a greenhouse set at 24° C. for disease to develop. Fungicide formulation, application and disease assessment followed the procedures as described in the Example A. Results of the evaluations are shown below in Table 4.

Zymoseptoria tritici = test: Fungicidal activity: leaf blotch of wheat (SEPTTR), disease control on wheat seedlings; format: in vivo; details: for pest or weed control at 121.5 g/ha: low volume application, 121.5 g/H; for pest or weed control at 100 ppm: high volume application
Procedure: Technical grades of materials were dissolved in acetone, which were then mixed with nine volumes of water (H2O) containing 110 ppm Triton X-100. The fungicide solutions were applied onto wheat seedlings using an automated booth sprayer to run-off. All sprayed plants were allowed to air dry prior to further handling. All fungicides were evaluated using the aforementioned method for their activity vs. all target diseases, unless stated otherwise. Wheat leaf blotch and brown rust activity were also evaluated using track spray applications, in which case the fungicides were formulated as EC formulations, containing 0.1% Trycol 5941 in the spray solutions. Wheat plants (variety Yuma) were grown from seed in a greenhouse in 50% mineral soil/50% soil-less Metro mix until the first leaf was fully emerged, with 7-10 seedlings per pot. These plants were inoculated with an aqueous spore suspension of Zymoseptoria tritici either prior to or after fungicide treatments. After inoculation the plants were kept in 100% relative humidity (one day in a dark dew chamber followed by two to three days in a lighted dew chamber at 20° C.) to permit spores to germinate and infect the leaf. The plants were then transferred to a greenhouse set at 20° C. for disease to develop. When disease symptoms were fully expressed on the 1st leaves of untreated plants, infection levels were assessed on a scale of 0 to 100 percent disease severity. Percent disease control was calculated using the ratio of disease severity on treated plants relative to untreated plants.

[1] = 24 h, 1 day protectant, read-out: PUCCRT disease control, 1DP, LV activity at 121.5 g/H
[2] = 72 h, 3 day curative, read-out: PUCCRT disease control, 3DC, LV activity at 121.5 g/H
[3] = 72 h, 3 day curative, read-out: SEPTTR disease control, 3DC, LV activity at 121.5 g/H
[4] = 24 h, 1 day protectant, read-out: SEPTTR disease control, 1DP, LV activity at 121.5 g/H
[5] = 24 h, 1 day protectant, read-out: PUCCRT disease control, 1DP, HV activity at 100 ppm
[6] = 72 h, 3 day curative, read-out: PUCCRT disease control, 3DC, HV activity at 100 ppm
[7] = 24 h, 1 day protectant, read-out: SEPTTR disease control, 1DP, HV activity at 100 ppm
[8] = 72 h, 3 day curative, read-out: SEPTTR disease control, 3DC, HV activity at 100 ppm

SMILES	pest or weed control at 121.5 g/ha (Puccinia triticina; [1]) [%]	pest or weed control at 121.5 g/ha (Puccinia triticina; [2]) [%]	pest or weed control at 121.5 g/ha (Zymoseptoria tritici; [3]) [%]	pest or weed control at 121.5 g/ha (Zymoseptoria tritici; [4]) [%]	pest or weed control at 100 ppm (Puccinia triticina; [5]) [%]	pest or weed control at 100 ppm (Puccinia triticina; [6]) [%]	pest or weed control at 100 ppm (Zymoseptoria tritici; [7]) [%]	pest or weed control at 100 ppm (Zymoseptoria tritici; [8]) [%]
CC[C@H](OC(=O)[C@H](C)NC(=O)c1c(O)c(OC)cc[n+]1[O-])[C@H](Oc1ccccc1)C(C)C [Compound 8]	≤ 80	> 80	≤ 80	–	–	–	–	–
COc1cc[n+]([O-])c(C(=O)N[C@@H](C)C(=O)O[C@@H](C)C(c2ccc(C)c(F)c2)c2ccc(C)c(F)c2)c1O [Compound 19]	≤ 80	≤ 80	> 80	> 80	–	–	–	–
CCOc1cc(F)ccc1C(c1ccc(F)cc1OCC)[C@H](C)OC(=O)[C@H](C)NC(=O)c1c(O)c(OC)cc[n+]1[O-] [Compound 32]	≤ 80	–	≤ 80	≤ 80	–	–	–	–
COc1cc[n+]([O-])c(C(=O)N[C@@H](C)C(=O)O[C@@H](C)[C@@H](c2ccccc2)c2ccc(F)cc2C)c1O [Compound 22]	> 80	> 80	> 80	> 80	> 80	> 80	> 80	> 80
COc1cc[n+]([O-])c(C(=O)N[C@@H](C)C(=O)O[C@@H](C)C(c2ccc(Cl)c(Cl)c2)c2ccc(Cl)c(Cl)c2)c1O [Compound 5]	≤ 80	–	≤ 80	> 80	–	–	> 80	≤ 80
COc1cc[n+]([O-])c(C(=O)N[C@@H](C)C(=O)O[C@@H](C)[C@H](c2ccc(C)cc2)c2ccc(C)cc2F)c1O [Compound 28]	> 80	≤ 80	> 80	> 80	> 80	–	> 80	> 80
COc1cc[n+]([O-])c(C(=O)N[C@@H](C)C(=O)O[C@@H](C)C(c2cccc(C)c2)c2cccc(C)c2)c1O [Compound 25]	> 80	> 80	> 80	> 80	> 80	> 80	> 80	> 80
COc1cc[n+]([O-])c(C(=O)N[C@@H](C)C(=O)O[C@@H](C)C(c2ccc(F)c(F)c2OC)c2ccc(F)c(F)c2OC)c1O [Compound 12]	> 80	≤ 80	> 80	> 80	> 80	≤ 80	> 80	> 80
COc1cc[n+]([O-])c(C(=O)N[C@@H](C)C(=O)O[C@@H](C)[C@@H](c2ccccc2)c2ccc(F)c(C)c2)c1O [Compound 31]	> 80	≤ 80	> 80	> 80	> 80	> 80	> 80	> 80
COc1cccc(C(c2cccc(OC)c2)[C@H](C)OC(=O)[C@H](C)NC(=O)c2c(O)c(OC)cc[n+]2[O-])c1 [Compound 36]	≤ 80	–	–	≤ 80	–	–	–	–
COc1cc[n+]([O-])c(C(=O)N[C@@H](C)C(=O)O[C@@H](C)C(C)(c2ccccc2)c2ccccc2)c1O [Compound 27]	–	–	≤ 80	≤ 80	–	–	> 80	> 80
